In patent publication US10213428B2, “(4-((3R,4R)-3-methoxytetrahydro-pyran-4-ylamino)piperidin-1-yl)(5-methyl-6-(((2R,6S)-6-(p-tolyl)tetrahydro-2H-pyran-2-yl)methylamino)pyrimidin-4-yl)methanone citrate” (Centrexion Therapeutics Corporation, priority 2015, dated 2019):

How the values were obtained:
hepatocytes = experiment: In vitro metabolic stability in hepatocyte incubations, dog; format: in vitro ADME; conditions: Dog hepatocytes, 1 μM
Description: (§1) Metabolic degradation of the test compound is assayed in a hepatocyte suspension. Hepatocytes are incubated in an appropriate buffer system. Following a (typically) 30 min preincubation in an incubator (37° C., 10% CO2) 5 μL of test compound solution (1 μM) are added into 395 μL hepatocyte suspension (cell density in the range 0.25-5 Mio cells/mL, typically 1 Mio cells/mL, final DMSO concentration 0.05%). The cells are incubated for six hours (incubator, orbital shaker) and samples (25 μL) are taken at 0, 0.5, 1, 2, 4 and 6 hours. Samples are transferred into acetonitrile and pelleted by centrifugation (5 min). The supernatant is transferred to a new 96-deepwell plate, evaporated under nitrogen and resuspended. Decline of parent compound is analyzed by HPLC-MS/MS. CLint is calculated as follows CL_INTRINSIC=Dose/AUC=(CO/CD)/(AUD+clast/k)×1000/60. […]

[1] = as above; format: in vitro ADME; conditions: hepatocytes (suspension); Dog; predicted from hepatocyte CL intrinsic, well stirred model; read-out: CL, in vivo
Description: as §1

CO[C@H]1COCC[C@H]1NC1CCN(C(=O)c2ncnc(NC[C@H]3CCC[C@@H](c4ccc(C)cc4)O3)c2C)CC1 [compound I, (4-((3R,4R)-3-methoxytetrahydro-pyran-4-ylamino)piperidin-1-yl)(5-methyl-6-(((2R,6S)-6-(p-tolyl)tetrahydro-2H-pyran-2-yl)methylamino)pyrimidin-4-yl)methanone]
CL intrinsic, in vitro (hepatocytes): 3.15 μL/min/10e6 cells
CLhep predicted at 1 μM [1]: 14 mL/min/kg
